Our source for the antimicrobial activity and hygroscopicity values is patent EP1918289A2, “Crystalline fluoroquinolone arginine salt form” (Wockhardt Limited, priority 2002, dated 2005).

Data set [1] is described as follows: antibacterial activity (minimum inhibitory concentration, MIC). The settings on record: compared with the R-(+)- and RS-(±)- acids.
The nature of data set [2]: hygroscopicity (exposure or storage at relative humidity, gravimetric). The settings on record: on exposure at a relative humidity of 41%.

Regarding `C[C@H]1CCc2c(N3CCC(O)CC3)c(F)cc3c(=O)c(C(=O)O)cn1c23`, the antimicrobial activity result in data set [1] is reported as “more potent”.

Consider “S-(-)-9-fluoro-6,7-dihydro-8-(4-hydroxypiperidin-1-yl)-5-methyl-1-oxo-1 H,5H-benzo[i,j] quinolizine-2-carboxylic acid, L-arginine salt 0.25 hydrate”, for which the hygroscopicity entry in data set [2] was “highly hygroscopic and turn into syrups”.

For the molecule “S-(-)-9-fluoro-6,7-dihydro-8-(4-hydroxypiperin-1-yl)-5-methyl-1-oxo-1H,5H-benzo[i,j] quinolizine-2-carboxylic acid, L-arginine salt, 0.75 hydrate”, the hygroscopicity result in data set [2] was “highly hygroscopic and turn into syrups”.
